From BindingDB's records for patent US20240174690 (Boehringer Ingelheim International, 2024) come the findings set out here.

The target of the experiment is GTPase KRas [G12C,C51S,C80L,C118S] (Homo sapiens, UniProt P01116, C118S/C51S/C80L/G12C). Nature of the experiment: AlphaScreen Binding Assay.
From the text: […]
(In general: Bead proximity is the source of the signal in Alpha formats.)

pIC50: −log10 of the molar value.

GTPase KRas [G12C,C51S,C80L,C118S], sequence (P01116 whole entry G12C/C51S/C80L/C118S, looked up): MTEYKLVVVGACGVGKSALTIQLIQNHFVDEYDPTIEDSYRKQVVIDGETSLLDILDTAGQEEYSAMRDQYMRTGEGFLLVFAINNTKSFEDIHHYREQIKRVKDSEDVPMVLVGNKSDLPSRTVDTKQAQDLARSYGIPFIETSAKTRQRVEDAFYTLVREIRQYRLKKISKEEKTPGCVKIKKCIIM

In the case of `C[C@H](Oc1cc(-n2nccc2-c2ccncc2)nc(-c2noc3c2CCC[C@@]32CCCc3sc(N)c(C#N)c32)n1)[C@@H]1CCCN1C` [US20240174690, Example II-131], the pIC50 (usually the negative decadic logarithm of the IC50, by convention in mol/L) is 8.40.
